Assays:
[1] = patients with other types of cancers; cited from earlier work
human cardiac OOC [2] = assay: Cardiac OOC hydrogen peroxide (ROS-Glo H2O2) assay; type: cell-based; conditions: after linsitinib treatment
Experimental: Tissues were randomly assigned to experimental groups. Medium was changed every day. Cardiac tissues were exposed to linsitinib for 3 days.
Hydrogen peroxide assay: After drug treatment, hydrogen peroxide (H2O2) levels in cardiac tissues were measured using ROS-Glo™ H2O2 Assay (Promega).

[3] = test system: non-metastatic (U2-OS cell line derived) osteosarcoma OOC; assay: Non-metastatic osteosarcoma OOC, luciferase luminescence (cancer cell number and viability); type: cell-based, human; conditions: 12 μM
Experimental: (§1) Drug treatment experiments recapitulating the patient treatment regimens and the patient plasma concentration of 12 μM of linsitinib were then carried out on the nonmetastatic and metastatic TE-ES and OS models. FIGS. 44 and 45 are graphs illustrating non-metastatic (U2-OS cell line derived, FIG. 44) and metastatic (KHOS/NP cell line derived, FIG. 45) osteosarcoma OOCs exposed to linsitinib (12 μM) according to the drug treatment regimen outlined. Luminescence as a function of cancer cell number and viability was measured (mean±s.e.m., n=6 for day 3, and n=3 for day 7 and 21, biologically independent per group). Significance was determined by unpaired two-tailed Student's t test of treatment group at specific day with respective control; *P<0.05; **P<0.01; ***P<0.001. Tissue engineered bone tumor models: Using an established protocol, expanded MSCs were seeded into the bone matrix scaffolds (4 mm×4 mm×1 mm) at a concentration of 10^6 cells per scaffold, using 40 μL of medium. The cells were allowed to attach for 2 hours, and then supplemented with additional mesenchymal stem cell medium overnight. The following day, osteogenic differentiation of the seeded cells was initiated by addition of low glucose DMEM supplemented with 1 μM dexamethasone (Sigma-Aldrich), 10 mM β-glycerophosphate (SigmaAldrich), and 50 μM L-ascorbic acid-2-phosphate (Sigma Aldrich). Each scaffold was incubated in 4 mL of osteogenic media, with media changes three times a week, for 3 weeks, allowing for the MSCs to differentiate into functional, maturing osteoblasts. Two weeks following the initiation of osteogenic differentiation, aggregates of tumor cells were prepared as described previously. Briefly, 0.3×10^6 cells were used to form ES aggregates and 0.5×10^6 cells were used to form OS aggregates. […] Cell viability: Cancer cell viability was measured for GFP-Luciferase labelled cancer cells using ONE-Glo luciferase substrate that was prepared according to manufacturer's protocol (Promega). […] Cardiac cell viability was assessed through the Pierce LDH Cytotoxicity Assay Kit (Thermo Fisher Scientific). […]

human cardiac OOC [4] = assay: Cardiac OOC calcium transients, isoproterenol response after linsitinib exposure; type: cell-based; conditions: tissues exposed to linsitinib, then 1 μM isoproterenol
Experimental: Isoproterenol response: Samples were loaded with Fluo-4, AM, cell permeant (Invitrogen) in RPMI Medium 1630 supplemented with B27 for 30 min at 37° C. […] Videos were analysed in MATLAB using a custom script that calculated the temporal changes in calcium fluorescence intensity. Each frame was normalized to a baseline background region chosen by the user to give baseline-corrected changes in minimum and maximum fluorescence values for each frame. The temporal changes in fluorescence intensity were presented in calcium transient traces from which the measurements were obtained. The calcium transient timing was determined as the peak-to-peak values of two successive beats as defined by the peak maxima.
Calcium transient traces were also analyzed 10 minutes after exposure to 1 μM isoproterenol hydrochloride, diluted in RPMI Medium 1630 supplemented with B27™.

[5] = test system: metastatic (KHOS/NP cell line derived) osteosarcoma OOC; assay: Metastatic osteosarcoma OOC, luciferase luminescence (cancer cell number and viability); type: cell-based, human; conditions: 12 μM
Experimental: as §1

TE-ES and TE-OS models = assay: Linsitinib titration on TE-ES and TE-OS bone tumor models, luminescence as cancer cell viability; type: cell-based, human; conditions: 21-day treatment cycle
Experimental: The cells were allowed to attach for 2 hours, and then supplemented with additional mesenchymal stem cell medium overnight. The following day, osteogenic differentiation of the seeded cells was initiated by addition of low glucose DMEM supplemented with 1 μM dexamethasone (Sigma-Aldrich), 10 mM β-glycerophosphate (SigmaAldrich), and 50 μM L-ascorbic acid-2-phosphate (Sigma Aldrich). Each scaffold was incubated in 4 mL of osteogenic media, with media changes three times a week, for 3 weeks, allowing for the MSCs to differentiate into functional, maturing osteoblasts. Two weeks following the initiation of osteogenic differentiation, aggregates of tumor cells were prepared as described previously. Briefly, 0.3×10^6 cells were used to form ES aggregates and 0.5×10^6 cells were used to form OS aggregates. After 1 week of culture, the primary bone tumor aggregates were infused into the differentiated osteoblastseeded bone scaffolds (3 aggregates per scaffold, placed apart of each other). […] Cell viability: Cancer cell viability was measured for GFP-Luciferase labelled cancer cells using ONE-Glo luciferase substrate that was prepared according to manufacturer's protocol (Promega). […] Cardiac cell viability was assessed through the Pierce LDH Cytotoxicity Assay Kit (Thermo Fisher Scientific). […]

C[C@]1(O)C[C@@H](c2nc(-c3ccc4ccc(-c5ccccc5)nc4c3)c3c(N)nccn32)C1 [linsitinib, Linsitinib (OSI-906)]
cardiotoxicity in clinical trials [1]: proarrhythmic events, like tachycardia and atrial fibrillation | levels of reactive oxygen species (hydrogen peroxide formation) (human cardiac OOC [2]): not observed | course of treated cancer cell population ([3]; after 3 weeks): no longer expanding | luminescence (cancer cell number and viability) vs control ([3]; after 3 weeks of drug treatment): significant response | luminescence (cancer cell number and viability) vs control ([3]; after 3 days): no significant response | inotropic response to isoproterenol (human cardiac OOC [4]): inotropic responses were not observed | proarrhythmic events in calcium transients (human cardiac OOC [4]): proarrhthymic events | luminescence (cancer cell number and viability) vs control ([5]; after 3 days): significant drug response | drug efficacy ([5]; by day 7): stopped being effective | course of tumor ([5]; day 7 to D21): rapidly expand before stabilizing by D21 | luminescence signal as indicator of cancer cell viability (TE-ES and TE-OS models; 12 μM, ES and OS models): significant responses | luminescence signal as indicator of cancer cell viability, titration (TE-ES and TE-OS models; linsitinib titration): dose response

Source: patent US12529022B2, “Human organ-on-chip models for predictive screening” (The Trustees of Columbia University in the City of New York, priority 2018, dated 2026)
